Measured values as given in ChEMBL document CHEMBL1201862, “PubChem BioAssay data set” (2004).
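Each compound was tested at five concentrations against cells in 96-well plates for 48 hours. Here, GI50 denotes the concentration required for 50% inhibition of growth.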 The source made the active and inactive calls. No stated cut-off is given here; in the data, active = GI50 up to about 1.1 µM and inactive = higher.

Tests used:
Experiment in all cases: growth of human tumour cells (NCI), 48 h
786-0 = test system: 786-0
ACHN = test system: ACHN
BT-549 = test system: BT-549
HCT-15 = test system: HCT-15
HL-60 = test system: HL-60
HOP-62 = test system: HOP-62
K562 = test system: K562
KM12 = test system: KM12
M14 = test system: M14
MDA-MB-231 = test system: MDA-MB-231
MDA-N = test system: MDA-N
Malme-3M = test system: Malme-3M
OVCAR-3 = test system: OVCAR-3
OVCAR-5 = test system: OVCAR-5
RPMI-8226 = test system: RPMI-8226
SF-268 = test system: SF-268
SK-MEL-28 = test system: SK-MEL-28
SK-MEL-2 = test system: SK-MEL-2
SNB-19 = test system: SNB-19
UO-31 = test system: UO-31

SMILES	GI50 (786-0)	GI50 (ACHN)	GI50 (BT-549)	GI50 (HCT-15) [µM]	GI50 (HL-60)	GI50 (HOP-62)	GI50 (K562)	GI50 (KM12)	GI50 (M14)	GI50 (MDA-MB-231)	GI50 (MDA-N)	GI50 (Malme-3M)	GI50 (OVCAR-3)	GI50 (OVCAR-5)	GI50 (RPMI-8226)	GI50 (SF-268)	GI50 (SK-MEL-28)	GI50 (SK-MEL-2)	GI50 (SNB-19)	GI50 (UO-31)
O=CN1CCN(C(=O)c2ccc(Cl)cc2Cl)C1=S	30.7 µM (inactive)	> 100 µM (inactive)	> 100 µM (inactive)	78.7	20.4 µM (inactive)	> 100 µM (inactive)	85.5 µM (inactive)	43.2 µM (inactive)	> 100 µM (inactive)	> 100 µM (inactive)	64.6 µM (inactive)	> 100 µM (inactive)	40.3 µM (inactive)	> 100 µM (inactive)	20.5 µM (inactive)	26.1 µM (inactive)	> 100 µM (inactive)	> 100 µM (inactive)	> 100 µM (inactive)	
Cc1nc(N/N=C/c2ccccc2Cl)[nH]c(=O)c1CCO	> 100 µM (inactive)	> 100 µM (inactive)	57.1 µM (inactive)	81.1	> 100 µM (inactive)	21.1 µM (inactive)	> 100 µM (inactive)	59.7 µM (inactive)	87.7 µM (inactive)	71 µM (inactive)	> 100 µM (inactive)	22 µM (inactive)	19.6 µM (inactive)	> 100 µM (inactive)	25.9 µM (inactive)	33.5 µM (inactive)	73.8 µM (inactive)		51.6 µM (inactive)	> 100 µM (inactive)
Cc1ccc(/C(C#N)=C/c2cccc([N+](=O)[O-])c2)cc1	31.8 µM (inactive)	> 100 µM (inactive)	> 100 µM (inactive)	> 100		38.1 µM (inactive)	> 100 µM (inactive)	> 100 µM (inactive)	> 100 µM (inactive)	19.2 µM (inactive)	> 100 µM (inactive)	> 100 µM (inactive)	> 100 µM (inactive)	> 100 µM (inactive)	> 100 µM (inactive)	37.2 µM (inactive)	> 100 µM (inactive)	51.9 µM (inactive)	43.8 µM (inactive)	45.3 µM (inactive)
COC(=O)c1c(OC)cc2cc3c(c(O)c2c1C)C(=O)C1(O)C(=O)C=C(OC)C(OC(=O)CC(C)N)=C1C3=O (configuration not stated)	13.6 µM (inactive)	8.65 µM (inactive)	34.7 µM (inactive)	17.3	16.4 µM (inactive)	29 µM (inactive)		5.64 µM (inactive)	32.7 µM (inactive)	8.47 µM (inactive)	> 100 µM (inactive)		22.6 µM (inactive)	87.3 µM (inactive)	7.6 µM (inactive)	16.5 µM (inactive)	31.3 µM (inactive)	15.2 µM (inactive)	6.41 µM (inactive)	18.7 µM (inactive)
CC(C)(C)NCC(O)c1ccc(O)c(CO)n1 (configuration not stated)	> 100 µM (inactive)	> 100 µM (inactive)	> 100 µM (inactive)	> 100	> 100 µM (inactive)	> 100 µM (inactive)		> 100 µM (inactive)	> 100 µM (inactive)	> 100 µM (inactive)	> 100 µM (inactive)		> 100 µM (inactive)	> 100 µM (inactive)	> 100 µM (inactive)	> 100 µM (inactive)	> 100 µM (inactive)	> 100 µM (inactive)	> 100 µM (inactive)	> 100 µM (inactive)
O=c1c2ccc(Cl)cc2oc2c(CSc3ccccc3)cccc12	> 61.5 µM (inactive)	> 39.2 µM (inactive)	> 43 µM (inactive)	28.4		> 55 µM (inactive)	15.3 µM (inactive)	21.6 µM (inactive)	> 42.5 µM (inactive)	> 63 µM (inactive)	31.7 µM (inactive)	14.2 µM (inactive)	> 40.8 µM (inactive)	> 62.8 µM (inactive)	13.2 µM (inactive)	> 100 µM (inactive)	> 53.1 µM (inactive)	> 49.1 µM (inactive)	> 45.5 µM (inactive)	
COc1cc(Cc2cc3c(c(C(=O)O)c2Br)OCO3)cc(OC)c1OC	> 100 µM (inactive)	> 100 µM (inactive)	47.1 µM (inactive)	41.6	21.7 µM (inactive)	> 100 µM (inactive)	40.9 µM (inactive)	39.9 µM (inactive)	70.8 µM (inactive)	> 100 µM (inactive)	23.8 µM (inactive)	57.8 µM (inactive)	> 100 µM (inactive)	> 100 µM (inactive)			> 100 µM (inactive)	> 100 µM (inactive)	> 100 µM (inactive)	> 100 µM (inactive)
CN(C)c1ccc(/C=C(\C#N)c2nc(-c3cc4ccccc4oc3=O)cs2)cc1	7.23 µM (inactive)	13.3 µM (inactive)	1.73 µM (inactive)	> 50	> 50 µM (inactive)	5.93 µM (inactive)	> 50 µM (inactive)	> 50 µM (inactive)	15.7 µM (inactive)	11.6 µM (inactive)	> 50 µM (inactive)	4.65 µM (inactive)		> 50 µM (inactive)	> 50 µM (inactive)	21 µM (inactive)	> 50 µM (inactive)	12 µM (inactive)	13.2 µM (inactive)	> 50 µM (inactive)
CC(N/N=C(\S)N1CCN(c2ccccn2)CC1)c1cccc[n+]1[O-] (configuration not stated)	7.71 µM (inactive)	6.01 µM (inactive)	43.2 µM (inactive)	3.28	3.13 µM (inactive)	67.3 µM (inactive)	0.811 µM (active)	52.4 µM (inactive)	28.3 µM (inactive)	19 µM (inactive)	18.4 µM (inactive)		4.9 µM (inactive)			22.8 µM (inactive)	16.8 µM (inactive)		32.9 µM (inactive)	8.13 µM (inactive)
CC(=O)Nc1ccc(-c2nc3ccccc3s2)cc1I	18.5 µM (inactive)	26.5 µM (inactive)	25.5 µM (inactive)	> 83.4	> 100 µM (inactive)	15.6 µM (inactive)	> 58.1 µM (inactive)	54 µM (inactive)	36.8 µM (inactive)	17.5 µM (inactive)	> 100 µM (inactive)	34.8 µM (inactive)	11.7 µM (inactive)		> 100 µM (inactive)	33.4 µM (inactive)	> 100 µM (inactive)	50.4 µM (inactive)	24.3 µM (inactive)	15.1 µM (inactive)
OCCCCn1cc(Cn2ncc3c(O)ncnc32)nn1	> 100 µM (inactive)	> 100 µM (inactive)	> 100 µM (inactive)	> 100		> 100 µM (inactive)	> 100 µM (inactive)	> 100 µM (inactive)	> 100 µM (inactive)	> 100 µM (inactive)	> 100 µM (inactive)	> 100 µM (inactive)	> 100 µM (inactive)	> 100 µM (inactive)	> 100 µM (inactive)	> 100 µM (inactive)	> 100 µM (inactive)	> 100 µM (inactive)	> 100 µM (inactive)	> 100 µM (inactive)
O=C1CC(=O)NC(NN2C(=O)CSC2C(=O)c2ccco2)=N1 (configuration not stated)	> 100 µM (inactive)	> 100 µM (inactive)	> 100 µM (inactive)	> 100		> 100 µM (inactive)	> 100 µM (inactive)	3.05 µM (inactive)	> 100 µM (inactive)	> 100 µM (inactive)	> 100 µM (inactive)	> 100 µM (inactive)	> 100 µM (inactive)	> 100 µM (inactive)	> 100 µM (inactive)	> 100 µM (inactive)	> 100 µM (inactive)	> 100 µM (inactive)		> 100 µM (inactive)
Cc1ccc(C2SCC(=O)N2NC(=O)c2ccncc2)s1 (configuration not stated)	> 100 µM (inactive)	> 100 µM (inactive)	> 100 µM (inactive)	> 100		> 100 µM (inactive)	> 100 µM (inactive)	> 100 µM (inactive)	> 100 µM (inactive)	> 100 µM (inactive)	> 100 µM (inactive)	> 100 µM (inactive)	> 100 µM (inactive)	> 100 µM (inactive)	> 100 µM (inactive)	> 100 µM (inactive)	> 100 µM (inactive)	> 100 µM (inactive)	> 100 µM (inactive)	> 100 µM (inactive)
COC(C)(C)C(O)C(O)C[C@H](C)C1CC=C2C1(C)CCC1[C@@]3(C)CCC(OC(C)=O)C(C)(C)C3CC(OC3OC(COC(C)=O)C(O)C(O)C3O)[C@@]21C (some centres not stated)	4.8 µM (inactive)	3.87 µM (inactive)	> 10 µM (inactive)	3.85	2.59 µM (inactive)	3.98 µM (inactive)	3.33 µM (inactive)	2.92 µM (inactive)	3.15 µM (inactive)	2.5 µM (inactive)	3.01 µM (inactive)	5.55 µM (inactive)	2.94 µM (inactive)	2.88 µM (inactive)	2.07 µM (inactive)	6.05 µM (inactive)	4.57 µM (inactive)		5.01 µM (inactive)	0.287 µM (active)
O=c1n(N=[S+]([O-])(c2ccccc2)c2ccccc2)c(=O)n2n1C1C=CC2CC1	> 100 µM (inactive)	> 100 µM (inactive)	> 100 µM (inactive)	> 100	> 100 µM (inactive)	> 100 µM (inactive)	> 100 µM (inactive)	> 100 µM (inactive)	> 100 µM (inactive)	> 100 µM (inactive)	> 100 µM (inactive)		> 100 µM (inactive)	> 100 µM (inactive)	> 100 µM (inactive)	> 100 µM (inactive)	> 100 µM (inactive)	> 100 µM (inactive)	> 100 µM (inactive)	> 100 µM (inactive)
